The structures appear in SMILES notation.

Test [1] concerns Mus musculus. The experiment in a line: Anticonvulsant activity against pentylenetetrazole-induced seizures in Mus musculus NMRI (mouse) assessed as time of maximal effect at 10 mg/kg, ip administered 30 min before PTZ challenge (reference value: 24.86 +/- 0.96 min). Type of test: functional. The settings on record: route intraperitoneal.
Test [2] concerns Mus musculus. Kind of test: Anticonvulsant activity against pentylenetetrazole-induced seizures in Mus musculus NMRI (mouse) assessed as time of maximal effect at 20 mg/kg, ip administered 30 min before PTZ challenge. The class given is functional. The settings on record: route intraperitoneal.
In test [3] the target is Voltage-dependent L-type calcium channel subunit alpha-1C (Cavia porcellus, UniProt O35505). Kind of test: Antagonist activity at Calcium channel in Cavia porcellus (guinea pig) ileal smooth muscle assessed as inhibition of 40 mM KCl-induced contraction compound pretreated for 15 min before KCl treatment.
Voltage-dependent L-type calcium channel subunit alpha-1C, sequence (O35505 whole entry): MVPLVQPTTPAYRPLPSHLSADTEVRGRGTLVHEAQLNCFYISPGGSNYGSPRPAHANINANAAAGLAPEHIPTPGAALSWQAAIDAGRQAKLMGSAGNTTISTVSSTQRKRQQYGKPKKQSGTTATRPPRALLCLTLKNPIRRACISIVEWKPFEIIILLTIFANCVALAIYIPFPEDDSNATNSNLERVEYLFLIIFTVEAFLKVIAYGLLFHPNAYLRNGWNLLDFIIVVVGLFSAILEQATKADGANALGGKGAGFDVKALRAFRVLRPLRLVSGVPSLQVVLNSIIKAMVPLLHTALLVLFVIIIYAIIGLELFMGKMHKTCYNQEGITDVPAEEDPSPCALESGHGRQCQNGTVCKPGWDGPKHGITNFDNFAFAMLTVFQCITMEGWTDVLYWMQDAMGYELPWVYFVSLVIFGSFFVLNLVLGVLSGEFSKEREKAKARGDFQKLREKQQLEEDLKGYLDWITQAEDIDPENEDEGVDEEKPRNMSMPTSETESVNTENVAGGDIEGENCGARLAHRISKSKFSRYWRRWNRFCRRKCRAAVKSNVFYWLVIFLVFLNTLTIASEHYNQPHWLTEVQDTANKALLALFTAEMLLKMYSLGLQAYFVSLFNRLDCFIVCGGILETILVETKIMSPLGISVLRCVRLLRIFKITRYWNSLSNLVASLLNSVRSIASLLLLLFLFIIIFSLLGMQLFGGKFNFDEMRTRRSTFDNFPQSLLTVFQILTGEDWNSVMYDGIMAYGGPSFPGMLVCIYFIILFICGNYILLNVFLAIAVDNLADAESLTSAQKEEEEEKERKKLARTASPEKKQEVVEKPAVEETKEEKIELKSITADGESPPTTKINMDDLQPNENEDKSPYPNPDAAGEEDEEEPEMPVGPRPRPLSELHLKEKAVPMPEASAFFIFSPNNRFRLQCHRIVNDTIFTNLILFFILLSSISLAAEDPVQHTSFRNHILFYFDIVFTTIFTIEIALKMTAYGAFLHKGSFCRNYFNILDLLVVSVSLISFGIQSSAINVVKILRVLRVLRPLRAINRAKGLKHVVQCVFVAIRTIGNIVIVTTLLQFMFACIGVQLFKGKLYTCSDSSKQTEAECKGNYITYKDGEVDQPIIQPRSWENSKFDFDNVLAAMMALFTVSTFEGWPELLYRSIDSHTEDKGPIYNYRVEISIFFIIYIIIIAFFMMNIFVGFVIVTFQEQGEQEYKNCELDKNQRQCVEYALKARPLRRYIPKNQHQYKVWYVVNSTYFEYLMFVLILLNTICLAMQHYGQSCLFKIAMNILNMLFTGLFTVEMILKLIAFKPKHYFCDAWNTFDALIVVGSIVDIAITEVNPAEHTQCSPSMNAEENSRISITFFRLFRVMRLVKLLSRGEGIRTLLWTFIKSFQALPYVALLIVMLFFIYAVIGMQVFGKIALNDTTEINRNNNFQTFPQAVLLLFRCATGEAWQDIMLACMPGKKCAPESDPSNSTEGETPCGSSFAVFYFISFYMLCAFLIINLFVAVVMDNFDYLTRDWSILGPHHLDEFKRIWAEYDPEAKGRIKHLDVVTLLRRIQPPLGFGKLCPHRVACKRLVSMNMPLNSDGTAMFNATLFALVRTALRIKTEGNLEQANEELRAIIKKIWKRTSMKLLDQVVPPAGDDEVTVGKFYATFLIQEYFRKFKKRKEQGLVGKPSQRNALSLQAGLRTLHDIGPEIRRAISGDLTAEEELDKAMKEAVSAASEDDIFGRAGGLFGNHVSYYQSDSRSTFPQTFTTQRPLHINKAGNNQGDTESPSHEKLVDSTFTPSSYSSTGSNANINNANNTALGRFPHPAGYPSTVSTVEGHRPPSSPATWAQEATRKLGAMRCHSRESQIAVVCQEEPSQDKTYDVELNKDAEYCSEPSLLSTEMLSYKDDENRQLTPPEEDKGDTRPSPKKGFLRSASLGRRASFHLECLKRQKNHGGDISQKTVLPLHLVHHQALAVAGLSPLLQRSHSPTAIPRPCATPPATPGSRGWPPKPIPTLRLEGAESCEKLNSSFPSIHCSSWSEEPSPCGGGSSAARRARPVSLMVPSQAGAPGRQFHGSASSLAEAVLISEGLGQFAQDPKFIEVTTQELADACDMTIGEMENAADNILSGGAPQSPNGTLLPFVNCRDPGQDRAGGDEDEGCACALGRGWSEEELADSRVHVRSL
Test [4] has as its system Mus musculus. Kind of test: Anticonvulsant activity against pentylenetetrazole-induced seizures in Mus musculus NMRI (mouse) assessed as time of maximal effect at 5 mg/kg, ip administered 30 min before PTZ challenge. The class given is functional. The following applies: route intraperitoneal.
Test [5] deals with Mus musculus. The experiment in a line: Anticonvulsant activity against pentylenetetrazole-induced seizures in Mus musculus NMRI (mouse) assessed as time of maximal effect at 5 mg/kg, ip administered 15 min before PTZ challenge. The settings on record: route intraperitoneal. The class given is functional.
Test [6] deals with Mus musculus. Kind of test: Anticonvulsant activity against pentylenetetrazole-induced seizures in Mus musculus NMRI (mouse) assessed as time of maximal effect at 20 mg/kg, ip administered 15 min before PTZ challenge. Type of test: functional. The settings on record: route intraperitoneal.
Test [7] deals with Mus musculus. Kind of test: Anticonvulsant activity against pentylenetetrazole-induced seizures in Mus musculus NMRI (mouse) assessed as time of maximal effect at 10 mg/kg, ip administered 15 min before PTZ challenge (reference value: 24.86 +/- 0.96 min). The following applies: route intraperitoneal. Type of test: functional.
Test [8] concerns Mus musculus. Kind of test: Anticonvulsant activity against pentylenetetrazole-induced seizures in Mus musculus NMRI (mouse) assessed as time of maximal effect at 5 mg/kg, ip administered 60 min before PTZ challenge. Type of test: functional. The settings on record: route intraperitoneal.
For test [9], the system named is Mus musculus. The experiment in a line: Anticonvulsant activity against pentylenetetrazole-induced seizures in Mus musculus NMRI (mouse) assessed as time of maximal effect at 60 mg/kg, ip administered 15 min before PTZ challenge (reference value: 24.86 +/- 0.96 min). The settings on record: route intraperitoneal. Type of test: functional.
For test [10], the system named is Mus musculus. Kind of test: Anticonvulsant activity against pentylenetetrazole-induced seizures in Mus musculus NMRI (mouse) assessed as time of maximal effect at 20 mg/kg, ip administered 60 min before PTZ challenge. The following applies: route intraperitoneal. The class given is functional.

In the case of `COC(=O)C1=C(C)NC(C)=C(C(=O)OC)C1c1csc(-c2ccc(Cl)cc2)n1`, the Time in the test with Mus musculus [1] is given as 40.94 min; with Mus musculus [2], 44.3 min; in the test on Mus musculus [4], 39.05 min. Besides, the IC50 in test [3] turned out to be 4.43 µM.
In the same order, the values of `CCOC(=O)C1=C(C)NC(C)=C(C(=O)OCC)C1c1csc(-c2ccc(Cl)cc2)n1` are 32.64 min, 39.07 min, 27.76 min and 3.65 µM.
Taken in the same sequence, the figures for `CCCOC(=O)C1=C(C)NC(C)=C(C(=O)OCCC)C1c1csc(-c2ccc(Cl)cc2)n1` were 36.26 min, 42.05 min, 34.75 min and 4.8 µM.
For the molecule `CC1=C(C(=O)OC(C)C)C(c2csc(-c3ccc(Cl)cc3)n2)C(C(=O)OC(C)C)=C(C)N1`, in test [3], the IC50 amounted to 37.2 µM.
For the molecule `CC1=C(C(=O)OCC(C)C)C(c2csc(-c3ccc(Cl)cc3)n2)C(C(=O)OCC(C)C)=C(C)N1`, the values for the Time in the test with Mus musculus [1], with Mus musculus [2] and in the test with Mus musculus [4] were 39.32 min, 47.62 min and 37.5 min, respectively. Besides, the IC50 in test [3] stood at 24.9 µM.
Take `CC1=C(C(=O)OC(C)(C)C)C(c2csc(-c3ccc(Cl)cc3)n2)C(C(=O)OC(C)(C)C)=C(C)N1`: in test [3], the IC50 was determined as 21 µM.
On to `CC1=C(C(=O)OC2CCCC2)C(c2csc(-c3ccc(Cl)cc3)n2)C(C(=O)OC2CCCC2)=C(C)N1`, for which, in [3], the IC50 is 19 µM.
On to `CC1=C(C(=O)OC2CCCCC2)C(c2csc(-c3ccc(Cl)cc3)n2)C(C(=O)OC2CCCCC2)=C(C)N1`, for which the Time was found to be 35.65 min in the test on Mus musculus [5], 37.86 min with Mus musculus [6] and 35.59 min in the test on Mus musculus [7]. In addition, the IC50 in test [3] is 11 µM.
For the molecule `CC1=C(C(=O)OCc2ccccc2)C(c2csc(-c3ccc(Cl)cc3)n2)C(C(=O)OCc2ccccc2)=C(C)N1`, in [3], the IC50 came out at 11 µM.
As for `CC1=C(C(=O)OCCc2ccccc2)C(c2csc(-c3ccc(Cl)cc3)n2)C(C(=O)OCCc2ccccc2)=C(C)N1`, in [3], the IC50 stood at 500 µM.
On the same count and under the same terms, the same measure for `CC1=C(C(=O)OC(C)c2ccccc2)C(c2csc(-c3ccc(Cl)cc3)n2)C(C(=O)OC(C)c2ccccc2)=C(C)N1` (centres undefined): 400 µM; for `CCOC(=O)C1=C(C)NC(C)=C(C(=O)OC)C1c1csc(-c2ccc(Cl)cc2)n1` (centres undefined): 22 µM.
For the molecule `CCCOC(=O)C1=C(C)NC(C)=C(C(=O)OC)C1c1csc(-c2ccc(Cl)cc2)n1` (centres undefined), the Time is listed as 37.6 min in the test with Mus musculus [1], 43.8 min in the test with Mus musculus [2] and 31.7 min in the test on Mus musculus [4]. In addition, the IC50 in test [3] came out at 5.92 µM.
As for `CCCOC(=O)C1=C(C)NC(C)=C(C(=O)OCC)C1c1csc(-c2ccc(Cl)cc2)n1` (centres undefined), the Time in the test with Mus musculus [8] was 34.5 min; with Mus musculus [9], 37.07 min; with Mus musculus [10], 42.32 min. Besides, in test [3], the IC50 was found to be 4.09 µM.
Regarding `COC(=O)C1=C(C)NC(C)=C(C(=O)OC(C)C)C1c1csc(-c2ccc(Cl)cc2)n1` (centres undefined), the IC50 in [3] came to 13.6 µM.
For `CCOC(=O)C1=C(C)NC(C)=C(C(=O)OC(C)C)C1c1csc(-c2ccc(Cl)cc2)n1` (centres undefined), the Time in the test on Mus musculus [1] worked out at 35.87 min; with Mus musculus [2] it was 44.64 min; with Mus musculus [4], 34.2 min. Moreover, the IC50 in test [3] was 2.55 µM.
On to `COC(=O)C1=C(C)NC(C)=C(C(=O)OCC(C)C)C1c1csc(-c2ccc(Cl)cc2)n1` (centres undefined), for which the IC50 in [3] amounted to 46.9 µM.
Same read-out and setting: to `CCOC(=O)C1=C(C)NC(C)=C(C(=O)OCC(C)C)C1c1csc(-c2ccc(Cl)cc2)n1` (centres undefined) belongs 15.4 µM.
On the same count and under the same terms, the same measure for `COC(=O)C1=C(C)NC(C)=C(C(=O)OC(C)(C)C)C1c1csc(-c2ccc(Cl)cc2)n1` (centres undefined): 46 µM.
On the same count and under the same terms, to `CCOC(=O)C1=C(C)NC(C)=C(C(=O)OC(C)(C)C)C1c1csc(-c2ccc(Cl)cc2)n1` (centres undefined) belongs 91 µM.
In the case of `COC(=O)C1=C(C)NC(C)=C(C(=O)OC2CCCC2)C1c1csc(-c2ccc(Cl)cc2)n1` (centres undefined), the Time with Mus musculus [1] is given as 34.42 min; with Mus musculus [2], 42.7 min; with Mus musculus [4], 33.22 min. The concentration for half-maximal inhibition (IC50) in [3] was determined as 7.29 µM.
Taken in the same sequence, the figures for `CCOC(=O)C1=C(C)NC(C)=C(C(=O)OC2CCCC2)C1c1csc(-c2ccc(Cl)cc2)n1` (centres undefined) were 38.8 min, 47.8 min, 39.6 min and 8.38 µM.
Take `COC(=O)C1=C(C)NC(C)=C(C(=O)OC2CCCCC2)C1c1csc(-c2ccc(Cl)cc2)n1` (centres undefined): in test [3], the half-maximal inhibitory concentration (IC50) came to 71.9 µM.
Same read-out and setting: to `CCOC(=O)C1=C(C)NC(C)=C(C(=O)OC2CCCCC2)C1c1csc(-c2ccc(Cl)cc2)n1` (centres undefined) belongs 100 µM; to `COC(=O)C1=C(C)NC(C)=C(C(=O)OCc2ccccc2)C1c1csc(-c2ccc(Cl)cc2)n1` (centres undefined), 64.9 µM.
With `CCOC(=O)C1=C(C)NC(C)=C(C(=O)OCc2ccccc2)C1c1csc(-c2ccc(Cl)cc2)n1` (centres undefined), the Time with Mus musculus [8] stood at 33.87 min; in the test with Mus musculus [9], 37.82 min; in the test with Mus musculus [10], 39.6 min. For the same molecule, in [3], the IC50 stood at 3.29 µM.
For `COC(=O)C1=C(C)NC(C)=C(C(=O)OCCc2ccccc2)C1c1csc(-c2ccc(Cl)cc2)n1` (centres undefined), the IC50 in test [3] is 10.2 µM.
Same read-out and setting: to `CCOC(=O)C1=C(C)NC(C)=C(C(=O)OCCc2ccccc2)C1c1csc(-c2ccc(Cl)cc2)n1` (centres undefined) belongs 12.1 µM.
In the case of `COC(=O)C1=C(C)NC(C)=C(C(=O)OC(C)c2ccccc2)C1c1csc(-c2ccc(Cl)cc2)n1` (centres undefined), the Time is reported as 42.1 min in the test with Mus musculus [1], 43.06 min in the test on Mus musculus [2] and 27.82 min with Mus musculus [4]. For the same molecule, in test [3], the IC50 was determined as 7.62 µM.
In the case of `CCOC(=O)C1=C(C)NC(C)=C(C(=O)OC(C)c2ccccc2)C1c1csc(-c2ccc(Cl)cc2)n1` (centres undefined), the IC50 in test [3] is 13.8 µM.
Take `COC(=O)C1=C(C)NC(C)=C(C(=O)OC)C1c1ccccc1[N+](=O)[O-]` [NIFEDIPINE]: the Time in the test on Mus musculus [1] is 43.88 min; in the test with Mus musculus [2] it was 48.3 min; in the test with Mus musculus [4] it was 40.66 min.

One may read the IC50 as the concentration needed to halve the response being measured.

These data come from ChEMBL document CHEMBL3045495, “Lipophilic 2-(4-chlorophenyl)-4-thiazolyl-1,4-dihydropyridines: synthesis, calcium channel antagonist activity, and protection against pentylenetetrazole-induced seizure” (Med Chem Res, 2009).
